Reference: ChEMBL document CHEMBL1135740, “Design, synthesis, and activity of a novel series of factor Xa inhibitors: optimization of arylamidine groups” (J Med Chem, 2002)

What was measured:
[1] = biological target: Prothrombin (Homo sapiens, UniProt P00734); experiment: Inhibitory constant against human coagulation factor II (thrombin) for selectivity within coagulation cascade
[2] = biological target: Coagulation factor X (Homo sapiens, UniProt P00742); experiment: Inhibitory constant against human coagulation factor Xa (fXa)
[3] = biological target: T1, Serine protease 1 (Bos taurus, UniProt P00760); experiment: Inhibitory constant against bovine trypsin for general specificity against serine proteases
T1 sequence (P00760 whole entry): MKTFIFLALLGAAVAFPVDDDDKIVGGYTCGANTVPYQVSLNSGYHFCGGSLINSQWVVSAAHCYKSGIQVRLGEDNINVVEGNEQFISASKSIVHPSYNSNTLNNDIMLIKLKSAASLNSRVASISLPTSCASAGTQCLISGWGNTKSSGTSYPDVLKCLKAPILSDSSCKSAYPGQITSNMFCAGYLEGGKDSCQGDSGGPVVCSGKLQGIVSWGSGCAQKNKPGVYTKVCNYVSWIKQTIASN

Coagulation factor X, sequence (P00742 41-179 limits assumed): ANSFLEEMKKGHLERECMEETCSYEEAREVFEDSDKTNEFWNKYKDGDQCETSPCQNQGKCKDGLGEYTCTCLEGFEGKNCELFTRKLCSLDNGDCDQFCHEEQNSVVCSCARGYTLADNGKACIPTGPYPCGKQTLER
Coagulation factor X, sequence (P00742 235-488 limits assumed): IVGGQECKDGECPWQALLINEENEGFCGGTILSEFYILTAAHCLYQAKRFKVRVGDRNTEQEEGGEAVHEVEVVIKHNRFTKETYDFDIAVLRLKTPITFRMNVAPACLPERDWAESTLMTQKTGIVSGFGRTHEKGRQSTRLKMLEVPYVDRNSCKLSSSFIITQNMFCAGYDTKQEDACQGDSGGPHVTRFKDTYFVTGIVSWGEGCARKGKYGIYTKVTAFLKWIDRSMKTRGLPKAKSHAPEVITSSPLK

CCOC(=O)Cc1cccc(Oc2nc(Oc3cccc(C(=N)N)c3)c(F)c(C)c2F)c1 gave a Ki [1] of over 5 µM, a Ki [2] of 0.81 µM and a Ki [3] of over 5 µM.

In the case of Cc1c(F)c(Oc2cccc(C(=N)N)c2)nc(Oc2cccc(C(=O)C(C)C)c2)c1F, the Ki [1] is reported as over 5 µM, the Ki [2] is reported as 2.1 µM and the Ki [3] is reported as 3.8 µM.

Cc1c(F)c(Oc2cccc(CC(=O)O)c2)nc(Oc2cccc(C(=N)N)c2)c1F gave a Ki [1] of over 5 µM, a Ki [2] of over 5 µM and a Ki [3] of over 5 µM.

For Cc1c(F)c(Oc2cccc(C(=N)N)c2)nc(Oc2cc(C(=O)N(C)C)cc(O)c2O)c1F, the Ki [1] was over 5 µM, the Ki [2] was over 5 µM and the Ki [3] was 3.4 µM.

In the case of COc1ccc(N(C)C)cc1Oc1nc(Oc2cccc(C(=N)N)c2)c(F)c(C)c1F, the Ki [1] is reported as 2.2 µM, the Ki [2] is reported as over 5 µM and the Ki [3] is reported as over 5 µM.

With Cc1c(F)c(Oc2cccc(CC(N)=O)c2)nc(Oc2cccc(C(=N)N)c2)c1F the Ki [1] was over 5 µM, the Ki [2] was 0.28 µM and the Ki [3] was over 5 µM.

In the case of Cc1c(F)c(Oc2cccc(C(=N)N)c2)nc(Oc2cccc([N+](=O)[O-])c2)c1F, the Ki [1] is reported as over 5 µM, the Ki [2] is reported as 2.5 µM and the Ki [3] is reported as over 5 µM.

CC(=O)c1cccc(Oc2nc(Oc3cccc(C(=N)N)c3)c(F)c(C)c2F)c1 showed a Ki [1] of over 5 µM and a Ki [2] of 1.4 µM.

With CC(=O)Nc1cccc(Oc2nc(Oc3cccc(C(=N)N)c3)c(F)c(C)c2F)c1 the Ki [2] was 5.8 µM.

With Cc1c(F)c(Oc2cccc(CC(=O)N(C)C)c2)nc(Oc2cccc(C(=N)N)c2)c1F the Ki [1] was over 5 µM, the Ki [2] was 0.46 µM and the Ki [3] was 4.2 µM.

CC1(C)CNC(c2cccc(Oc3cc(C(=O)O)cc(Oc4cc(C(=N)N)ccc4O)n3)c2)=N1 was tested, and the Ki [1] was over 5 µM, the Ki [2] was 0.81 µM and the Ki [3] was 1.4 µM.

Cc1ccc(C(=O)N(C)C)cc1Oc1nc(Oc2cccc(C(=N)N)c2)c(F)c(C)c1F gave a Ki [2] of over 5 µM.

Cc1c(F)c(Oc2cccc(C(=O)N(C)C)c2)nc(Oc2cc(C(=N)N)cc(O)c2O)c1F was tested, and the Ki [1] was 1.2 µM, the Ki [2] was 0.023 µM and the Ki [3] was 1.1 µM.

Cc1c(F)c(Oc2cccc(C(=N)N)c2)nc(Oc2cccc([S+]([O-])N(C)C)c2)c1F (stereo unspecified) was tested, and the Ki [1] was over 5 µM, the Ki [2] was 0.72 µM and the Ki [3] was 2.4 µM.

Cc1c(F)c(Oc2cccc(Nc3ccccc3)c2)nc(Oc2cccc(C(=N)N)c2)c1F gave a Ki [1] of 3.8 µM, a Ki [2] of 1.8 µM and a Ki [3] of over 5 µM.

Cc1c(F)c(Oc2cccc(N(C)C)c2)nc(Oc2cc(C(=N)N)ccc2O)c1F gave a Ki [1] of 0.19 µM, a Ki [2] of 0.003 µM and a Ki [3] of 1 µM.

With Cc1c(F)c(Oc2cccc(C(=N)N)c2)nc(Oc2cccc(C(F)(F)F)c2)c1F the Ki [1] was over 5 µM and the Ki [2] was 1.6 µM.

CCNc1cccc(Oc2nc(Oc3cccc(C(=N)N)c3)c(F)c(C)c2F)c1 was tested, and the Ki [1] was over 5 µM, the Ki [2] was 0.53 µM and the Ki [3] was 2.7 µM.

COc1ccc(Oc2nc(Oc3cccc(C(=N)N)c3)c(F)c(C)c2F)cc1C(=O)N(C)C was tested, and the Ki [1] was 3 µM, the Ki [2] was 1.4 µM and the Ki [3] was 0.45 µM.

COc1c(O)cc(C(=N)N)cc1Oc1nc(Oc2cccc(C(=O)N(C)C)c2)c(F)c(C)c1F gave a Ki [1] of over 5 µM, a Ki [2] of 0.16 µM and a Ki [3] of over 5 µM.

With Cc1c(F)c(Oc2cccc(CO)c2)nc(Oc2cccc(C(=N)N)c2)c1F the Ki [2] was 1.3 µM.

Work on Cc1c(F)c(Oc2cccc(O)c2)nc(Oc2cccc(C(=N)N)c2)c1F yielded a Ki [2] of 5 µM.

With Cc1c(F)c(Oc2cccc(C(=N)N)c2)nc(Oc2cc(C(=O)N(C)C)ccc2O)c1F the Ki [1] was over 5 µM, the Ki [2] was over 5 µM and the Ki [3] was 3.7 µM.

With Cc1c(F)c(Oc2cccc(N)c2)nc(Oc2cccc(C(=N)N)c2)c1F the Ki [1] was over 5 µM, the Ki [2] was 3.3 µM and the Ki [3] was over 5 µM.

Cc1c(F)c(Oc2cccc(CN)c2)nc(Oc2cccc(C(=N)N)c2)c1F showed a Ki [1] of over 5 µM, a Ki [2] of 1.4 µM and a Ki [3] of 2.9 µM.

Molecule CCOC(=O)c1ccc(N(C)C)cc1Oc1nc(Oc2cccc(C(=N)N)c2)c(F)c(C)c1F has a Ki [1] of over 5 µM, a Ki [2] of over 5 µM and a Ki [3] of over 5 µM.

Work on Cc1c(F)c(Oc2cccc(F)c2)nc(Oc2cccc(C(=N)N)c2)c1F yielded a Ki [2] of 3.2 µM.

In the case of Cc1c(F)c(Oc2cccc(C(=N)N)c2)nc(Oc2ccc(O)c(C(=O)N(C)C)c2)c1F, the Ki [2] is reported as 2 µM.

Work on COc1ccc(C(=O)N(C)C)cc1Oc1nc(Oc2cccc(C(=N)N)c2)c(F)c(C)c1F yielded a Ki [1] of over 5 µM, a Ki [2] of over 5 µM and a Ki [3] of 2.1 µM.

COc1c(Oc2nc(Oc3cccc(C(=N)N)c3)c(F)c(C)c2F)cccc1C(=O)N(C)C was tested, and the Ki [2] was 2.4 µM.

Molecule Cc1c(F)c(Oc2cccc(Cl)c2)nc(Oc2cccc(C(=N)N)c2)c1F has a Ki [1] of over 5 µM and a Ki [2] of 1.7 µM.

Cc1c(F)c(Oc2cccc(N(C)C)c2)nc(Oc2cc(C(=N)N)ccc2N)c1F was tested, and the Ki [1] was 0.3 µM, the Ki [2] was 0.064 µM and the Ki [3] was 0.4 µM.

In the case of Cc1c(F)c(Oc2cccc(OC(F)(F)F)c2)nc(Oc2cccc(C(=N)N)c2)c1F, the Ki [1] is reported as over 5 µM, the Ki [2] is reported as 1.8 µM and the Ki [3] is reported as over 5 µM.

Cc1c(Oc2nc(Oc3cccc(C(=N)N)c3)c(F)c(C)c2F)cccc1N(C)C was tested, and the Ki [1] was 0.95 µM, the Ki [2] was 0.32 µM and the Ki [3] was 5 µM.

For CN(C)c1cccc(Oc2cc(C(=O)O)cc(Oc3cc(C(=N)N)ccc3O)n2)c1, the Ki [1] was 0.12 µM, the Ki [2] was 0.012 µM and the Ki [3] was 0.75 µM.

Cc1c(F)c(Oc2cccc(NC(N)=O)c2)nc(Oc2cccc(C(=N)N)c2)c1F gave a Ki [1] of over 5 µM, a Ki [2] of 4 µM and a Ki [3] of over 5 µM.
